Laboratory results reported in patent publication US20260092071A1, “COMPOUNDS AND COMPOSITIONS AS SMARCA2/4 DEGRADERS AND USES THEREOF” (REGENTS OF THE UNIVERSITY OF MICHIGAN, priority 2022, published 2026).
Like-named read-outs stand apart in the source and are kept apart here.

What was measured:
SMARCA2 = SMARCA2 (Homo sapiens, UniProt P51531); assay: HiBit assay in engineered HT1080 CRISPR knock-in cell, 6 hrs (B series), SMARCA2; format: cell-based; conditions: 6 hrs incubation; for DC50: HT1080 CRISPR knock-in cells, read-out: SMARC A2 HT1080 HiBit DC50; for Dmax: HT-1080, HT1080 CRISPR knock-in cells, read-out: SMARC A2 HT1080 HiBit Dmax (%)
Outline: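 Remaining SMARCA2 protein measured as HiBiT luminescence after cell lysis with LgBiT plus lytic substrate. Engineered HT1080 knock-in cells (2000/well) were first treated 6 h at 37 °C with compound at a final 0.1% DMSO.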

SMARCA4 = SMARCA4 (Homo sapiens, UniProt P51532); assay: HiBit assay in engineered HT1080 CRISPR knock-in cell, 6 hrs (B series), SMARCA4; format: cell-based; conditions: for DC50: HT1080 CRISPR knock-in cells, read-out: SMARC A4 HT1080 HiBit DC50
Procedure: The HiBit assay was performed using engineered HT1080 CRISPR knock-in cell utilizing the Nano-Glo HiBiT Lytic Detection System from Promega, Cat #N3040. Compounds were transferred, 25 nL DMSO or test compounds (final DMSO @ 0.1%) to intermediate plates (Corning3570) using ECHO550. Cells were seeded onto compounds at 2000 cells/25 μL/well and incubated for 6 hrs in a tissue culture incubator at 37° C. and 5% CO2. The LgBiT Protein was diluted at 1:100 and the Nano-Glo® HiBIT Lytic Substrate 1:50 into an appropriate volume of room temperature using the Nano-Glo® HiBiT Lytic Buffer. At the end of compound incubation time, 15 ul of the detection reagent was added to each well (without LgBiT for negative control wells) using the Thermo Scientific multidrop combi. The plate was shaken for 10 mins at RT using Combi. After briefly centrifugation (2000 rpm 1 mins), plate was read on Envision (Ultrasensitive luminescence model).

[1] = HT-1080, HT1080 CRISPR knock-in cells, 6 hrs incubation, read-out: SMARC A4 HT1080 HiBit Dmax(%)

SMARCA4, sequence (P51532 whole entry): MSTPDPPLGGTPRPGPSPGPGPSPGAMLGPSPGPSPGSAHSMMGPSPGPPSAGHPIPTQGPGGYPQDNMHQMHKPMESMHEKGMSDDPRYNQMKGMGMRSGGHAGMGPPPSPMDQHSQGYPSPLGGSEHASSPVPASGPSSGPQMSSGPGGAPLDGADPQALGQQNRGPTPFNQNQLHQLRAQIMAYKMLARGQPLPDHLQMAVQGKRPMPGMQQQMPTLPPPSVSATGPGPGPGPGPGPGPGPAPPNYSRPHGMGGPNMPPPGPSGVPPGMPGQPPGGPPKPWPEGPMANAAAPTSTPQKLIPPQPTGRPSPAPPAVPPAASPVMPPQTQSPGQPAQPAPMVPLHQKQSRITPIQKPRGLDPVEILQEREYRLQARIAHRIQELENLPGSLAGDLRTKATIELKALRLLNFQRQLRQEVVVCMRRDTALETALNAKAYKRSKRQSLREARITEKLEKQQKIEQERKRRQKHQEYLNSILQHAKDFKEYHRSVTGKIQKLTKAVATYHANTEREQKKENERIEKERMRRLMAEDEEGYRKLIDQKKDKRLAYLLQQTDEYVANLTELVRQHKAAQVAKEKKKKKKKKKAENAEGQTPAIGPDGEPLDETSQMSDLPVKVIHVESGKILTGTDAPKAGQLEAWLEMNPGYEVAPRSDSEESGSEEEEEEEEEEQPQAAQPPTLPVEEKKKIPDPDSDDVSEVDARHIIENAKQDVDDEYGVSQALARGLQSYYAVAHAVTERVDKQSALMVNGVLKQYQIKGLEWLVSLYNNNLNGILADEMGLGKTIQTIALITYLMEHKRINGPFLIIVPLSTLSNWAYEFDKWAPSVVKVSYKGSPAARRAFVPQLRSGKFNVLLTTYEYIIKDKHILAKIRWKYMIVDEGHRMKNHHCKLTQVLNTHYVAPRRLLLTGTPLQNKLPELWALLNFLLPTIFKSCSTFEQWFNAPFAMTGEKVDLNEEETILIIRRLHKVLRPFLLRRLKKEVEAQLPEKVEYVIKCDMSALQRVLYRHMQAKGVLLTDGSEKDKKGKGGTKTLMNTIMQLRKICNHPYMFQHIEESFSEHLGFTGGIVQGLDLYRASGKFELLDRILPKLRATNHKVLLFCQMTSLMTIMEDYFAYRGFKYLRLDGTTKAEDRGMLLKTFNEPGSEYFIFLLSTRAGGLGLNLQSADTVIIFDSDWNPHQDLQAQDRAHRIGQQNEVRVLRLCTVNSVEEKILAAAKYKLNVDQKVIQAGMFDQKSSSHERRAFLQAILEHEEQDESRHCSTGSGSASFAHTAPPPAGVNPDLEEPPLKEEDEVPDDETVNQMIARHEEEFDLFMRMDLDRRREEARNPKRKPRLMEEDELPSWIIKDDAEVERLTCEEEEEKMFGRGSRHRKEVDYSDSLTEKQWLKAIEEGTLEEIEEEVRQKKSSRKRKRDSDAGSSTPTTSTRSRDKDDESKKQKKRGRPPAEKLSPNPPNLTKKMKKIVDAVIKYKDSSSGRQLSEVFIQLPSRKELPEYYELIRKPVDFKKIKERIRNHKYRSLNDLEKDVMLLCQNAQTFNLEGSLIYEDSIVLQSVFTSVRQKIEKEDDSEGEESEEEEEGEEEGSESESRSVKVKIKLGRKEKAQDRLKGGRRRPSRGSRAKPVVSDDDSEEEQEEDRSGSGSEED
SMARCA2, sequence (P51531 whole entry): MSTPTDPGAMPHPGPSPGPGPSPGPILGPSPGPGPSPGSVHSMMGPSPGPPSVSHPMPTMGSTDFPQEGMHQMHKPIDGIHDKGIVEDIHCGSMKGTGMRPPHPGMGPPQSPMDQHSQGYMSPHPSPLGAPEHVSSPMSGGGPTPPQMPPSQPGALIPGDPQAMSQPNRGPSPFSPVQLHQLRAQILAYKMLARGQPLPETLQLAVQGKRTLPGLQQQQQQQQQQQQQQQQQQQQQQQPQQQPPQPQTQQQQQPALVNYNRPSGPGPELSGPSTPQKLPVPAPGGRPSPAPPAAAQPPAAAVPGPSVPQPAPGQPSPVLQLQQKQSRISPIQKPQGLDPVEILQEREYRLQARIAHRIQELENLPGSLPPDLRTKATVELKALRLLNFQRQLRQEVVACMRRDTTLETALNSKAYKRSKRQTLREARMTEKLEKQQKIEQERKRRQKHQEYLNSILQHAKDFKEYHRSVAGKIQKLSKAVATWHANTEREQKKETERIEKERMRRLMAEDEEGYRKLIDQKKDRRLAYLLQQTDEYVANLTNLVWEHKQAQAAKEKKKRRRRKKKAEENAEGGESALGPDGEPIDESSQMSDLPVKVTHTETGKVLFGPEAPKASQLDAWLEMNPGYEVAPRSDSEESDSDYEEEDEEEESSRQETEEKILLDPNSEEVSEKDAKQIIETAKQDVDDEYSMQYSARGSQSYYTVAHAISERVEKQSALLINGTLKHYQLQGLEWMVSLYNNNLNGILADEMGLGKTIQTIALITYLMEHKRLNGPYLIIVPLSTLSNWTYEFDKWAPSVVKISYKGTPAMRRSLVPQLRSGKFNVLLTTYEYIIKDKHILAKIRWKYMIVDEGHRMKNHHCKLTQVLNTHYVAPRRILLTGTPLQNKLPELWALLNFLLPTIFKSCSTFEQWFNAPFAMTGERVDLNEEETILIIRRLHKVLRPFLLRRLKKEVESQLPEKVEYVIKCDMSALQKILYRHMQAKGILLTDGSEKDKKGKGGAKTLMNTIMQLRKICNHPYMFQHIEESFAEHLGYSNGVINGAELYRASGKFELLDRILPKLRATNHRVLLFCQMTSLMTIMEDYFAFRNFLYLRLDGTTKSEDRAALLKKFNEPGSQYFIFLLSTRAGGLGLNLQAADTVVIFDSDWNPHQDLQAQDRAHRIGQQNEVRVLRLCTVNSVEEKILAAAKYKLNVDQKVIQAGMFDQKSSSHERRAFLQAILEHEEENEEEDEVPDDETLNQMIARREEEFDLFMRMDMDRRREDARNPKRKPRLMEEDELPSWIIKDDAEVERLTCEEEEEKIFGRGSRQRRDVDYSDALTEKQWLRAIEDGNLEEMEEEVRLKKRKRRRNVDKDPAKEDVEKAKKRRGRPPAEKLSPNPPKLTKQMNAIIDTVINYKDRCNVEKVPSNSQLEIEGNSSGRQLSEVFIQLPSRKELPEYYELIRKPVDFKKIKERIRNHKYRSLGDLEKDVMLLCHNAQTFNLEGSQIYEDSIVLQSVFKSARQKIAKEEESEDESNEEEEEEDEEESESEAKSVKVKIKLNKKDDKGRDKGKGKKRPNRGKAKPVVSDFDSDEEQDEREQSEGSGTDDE

SMILES	DC50 (SMARCA2)	Dmax (SMARCA2)	DC50 (SMARCA4; 6 hrs incubation)	Dmax (SMARCA4; [1])	Dmax (SMARCA4; HT-1080, read-out: SMARC A4 HT1080 HiBit Dmax(%), HT1080 CRISPR knock-in cells, 6 hrs incubation)
Cc1ncsc1-c1ccc([C@H](CC(=O)NCCCN2CCC(c3ccc4c(c3)-n3c(nc(=O)c5c(Cl)cccc53)C4(C)C)CC2)NC(=O)[C@@H]2C[C@@H](O)CN2C(=O)[C@@H](NC(=O)C2(F)CC2)C(C)(C)C)cc1 [Compound B25, (2S,4R)-N-((S)-3-((3-(4-(4-chloro-7,7-dimethyl-5-oxo-5,7-dihydroindolo[1,2-a]quinazolin-10-yl)piperidin-1-yl)propyl)amino)-1-(4-(4-methylthiazol-5-yl)phenyl)-3-oxopropyl)-1-((S)-2-(1-fluorocyclopropane-1-carboxamido)-3,3-dimethylbutanoyl)-4-hydroxypyrrolidine-2-carboxamide]	501 to 1000 nM	< 50%	100 to 500 nM	< 50%	–
Cc1ncsc1-c1ccc(CNC(=O)[C@@H]2C[C@@H](O)CN2C(=O)[C@@H](NC(=O)C2(F)CC2)C(C)(C)C)c(OCCCCN2CCC(c3ccc4c(c3)-n3c(nc(=O)c5c(Cl)cccc53)C4(C)C)CC2)c1 [Compound B35, (2S,4R)—N-(2-(4-(4-(4-chloro-7,7-dimethyl-5-oxo-5,7-dihydroindolo[1,2-a]quinazolin-10-yl)piperidin-1-yl)butoxy)-4-(4-methylthiazol-5-yl)benzyl)-1-((S)-2-(1-fluorocyclopropane-1-carboxamido)-3,3-dimethylbutanoyl)-4-hydroxypyrrolidine-2-carboxamide]	< 100 nM	> 90%	< 100 nM	> 90%	–
Cc1ncsc1-c1ccc([C@H](C)NC(=O)[C@@H]2C[C@@H](O)CN2C(=O)[C@@H](NC(=O)C2CCC(CN3CCC(c4ccc5c(c4)C(C)(C(F)(F)F)c4nc(=O)c6c(Cl)cccc6n4-5)CC3)CC2)C(C)(C)C)cc1 (stereo partly drawn) [Compound B76, (2S,4R)-1-((2S)-2-((1r,4S)-4-((4-(4-chloro-7-methyl-5-oxo-7-(trifluoromethyl)-5,7-dihydroindolo[1,2-a]quinazolin-9-yl)piperidin-1-yl)methyl)cyclohexane-1-carboxamido)-3,3-dimethylbutanoyl)-4-hydroxy-N-((S)-1-(4-(4-methylthiazol-5-yl)phenyl)ethyl)pyrrolidine-2-carboxamide]	100 to 500 nM	70 to 90%	100 to 500 nM	< 50%	–
Cc1ncsc1-c1ccc([C@H](C)NC(=O)[C@@H]2C[C@@H](O)CN2C(=O)[C@@H](NC(=O)CCCn2cc(-c3ccc4c(c3)-n3c(nc(=O)c5c(Cl)cccc53)C4(C)C)cn2)C(C)(C)C)cc1 [Compound B83, (2S,4R)-1-((S)-2-(4-(4-(4-chloro-7,7-dimethyl-5-oxo-5,7-dihydroindolo[1,2-a]quinazolin-10-yl)-1H-pyrazol-1-yl)butanamido)-3,3-dimethylbutanoyl)-4-hydroxy-N-((S)-1-(4-(4-methylthiazol-5-yl)phenyl)ethyl)pyrrolidine-2-carboxamide]	100 to 500 nM	< 50%	> 1000 nM	< 50%	–
Cc1ncsc1-c1ccc([C@H](C)NC(=O)[C@@H]2C[C@@H](O)CN2C(=O)[C@@H](NC(=O)C2CC(N3CCC(c4ccc5c(c4)C(C)(C)c4nc(=O)c6c(Cl)cccc6n4-5)CC3)C2)C(C)(C)C)cc1 (stereo partly drawn) [Compound B13, (2S,4R)-1-((2S)-2-(3-(4-(4-chloro-7,7-dimethyl-5-oxo-5,7-dihydroindolo[1,2-a]quinazolin-9-yl)piperidin-1-yl)cyclobutane-1-carboxamido)-3,3-dimethylbutanoyl)-4-hydroxy-N-((S)-1-(4-(4-methylthiazol-5-yl)phenyl)ethyl)pyrrolidine-2-carboxamide]	< 100 nM	70 to 90%	100 to 500 nM	< 50%	–

The remaining lines, values ahead:

DC50 (SMARCA2)	Dmax (SMARCA2)	DC50 (SMARCA4; 6 hrs incubation)	Dmax (SMARCA4; [1])	Dmax (SMARCA4; HT-1080, read-out: SMARC A4 HT1080 HiBit Dmax(%), HT1080 CRISPR knock-in cells, 6 hrs incubation)	SMILES
< 100 nM	> 90%	100 to 500 nM	50 to 69%	–	Cc1ncsc1-c1ccc([C@H](CC(=O)N[C@H]2CC[C@H](CN3CCC(c4ccc5c(c4)-n4c(nc(=O)c6c(Cl)cccc64)C5(C)C)CC3)CC2)NC(=O)[C@@H]2C[C@@H](O)CN2C(=O)[C@@H](NC(=O)C2(F)CC2)C(C)(C)C)cc1 [Compound B22, (2S,4R)-N-((S)-3-(((1r,4S)-4-((4-(4-chloro-7,7-dimethyl-5-oxo-5,7-dihydroindolo[1,2-a]quinazolin-10-yl)piperidin-1-yl)methyl)cyclohexyl)amino)-1-(4-(4-methylthiazol-5-yl)phenyl)-3-oxopropyl)-1-((S)-2-(1-fluorocyclopropane-1-carboxamido)-3,3-dimethylbutanoyl)-4-hydroxypyrrolidine-2-carboxamide]
< 100 nM	> 90%	< 100 nM	< 50%	–	Cc1ncsc1-c1ccc([C@H](C)NC(=O)[C@@H]2C[C@@H](O)CN2C(=O)[C@@H](NC(=O)[C@H]2CC[C@H](CN3CCC(c4ccc5c(c4)-n4c(nc(=O)c6c(Br)cccc64)C5(C)C)CC3)CC2)C(C)(C)C)cc1 [Compound B70, (2S,4R)-1-((S)-2-((11,4S)-4-((4-(4-bromo-7,7-dimethyl-5-oxo-5,7-dihydroindolo[1,2-a]quinazolin-10-yl)piperidin-1-yl)methyl)cyclohexane-1-carboxamido)-3,3-dimethylbutanoyl)-4-hydroxy-N-((S)-1-(4-(4-methylthiazol-5-yl)phenyl)ethyl)pyrrolidine-2-carboxamide]
< 100 nM	> 90%	< 100 nM	70 to 90%	–	Cc1ncsc1-c1ccc([C@H](C)NC(=O)[C@@H]2C[C@@H](O)CN2C(=O)[C@H](C(C)C)n2cc([C@H]3CC[C@H](CN4CCC(c5ccc6c(c5)-n5c(nc(=O)c7c(Cl)cccc75)C6(C)C)CC4)CC3)nn2)cc1 [Compound B41, (2S,4R)-1-((S)-2-(4-((1r,4S)-4-((4-(4-chloro-7,7-dimethyl-5-oxo-5,7-dihydroindolo[1,2-a]quinazolin-10-yl)piperidin-1-yl)methyl)cyclohexyl)-1H-1,2,3-triazol-1-yl)-3-methylbutanoyl)-4-hydroxy-N-((S)-1-(4-(4-methylthiazol-5-yl)phenyl)ethyl)pyrrolidine-2-carboxamide]
< 100 nM	> 90%	< 100 nM	–	> 90%	Cc1ncsc1-c1ccc([C@H](C)NC(=O)[C@@H]2C[C@@H](O)CN2C(=O)[C@H](C(C)C)n2cc([C@H]3CC[C@H](CN4CCC(c5ccc6c(c5)C(C)(C)c5nc(=O)c7c(Cl)cccc7n5-6)CC4)CC3)nn2)cc1 [Compound B78, (2S,4R)-1-((S)-2-(4-((1r,4S)-4-((4-(4-chloro-7,7-dimethyl-5-oxo-5,7-dihydroindolo[1,2-a]quinazolin-9-yl)piperidin-1-yl)methyl)cyclohexyl)-1H-1,2,3-triazol-1-yl)-3-methylbutanoyl)-4-hydroxy-N—((S)-1-(4-(4-methylthiazol-5-yl)phenyl)ethyl)pyrrolidine-2-carboxamide]
< 100 nM	> 90%	< 100 nM	70 to 90%	–	Cc1ncsc1-c1ccc([C@H](C)NC(=O)[C@@H]2C[C@@H](O)CN2C(=O)[C@@H](c2cc(N3CCC(CN4CCC(c5cccc6c5C(C)(C)c5nc(=O)c7c(Cl)cccc7n5-6)CC4)CC3)no2)C(C)C)cc1 [Compound B10, (2S,4R)-1-((R)-2-(3-(4-((4-(4-chloro-7,7-dimethyl-5-oxo-5,7-dihydroindolo[1,2-a]quinazolin-8-yl)piperidin-1-yl)methyl)piperidin-1-yl)isoxazol-5-yl)-3-methylbutanoyl)-4-hydroxy-N—((S)-1-(4-(4-methylthiazol-5-yl)phenyl)ethyl)pyrrolidine-2-carboxamide]
< 100 nM	> 90%	< 100 nM	> 90%	–	Cc1ncsc1-c1ccc(CNC(=O)[C@@H]2C[C@@H](O)CN2C(=O)[C@@H](NC(=O)C2(F)CC2)C(C)(C)C)c(OCCCN2CCC(c3ccc4c(c3)-n3c(nc(=O)c5c(Cl)cccc53)C4(C)C)CC2)c1 [Compound B39, (2S,4R)-N-(2-(3-(4-(4-chloro-7,7-dimethyl-5-oxo-5,7-dihydroindolo[1,2-a]quinazolin-10-yl)piperidin-1-yl)propoxy)-4-(4-methylthiazol-5-yl)benzyl)-1-((S)-2-(1-fluorocyclopropane-1-carboxamido)-3,3-dimethylbutanoyl)-4-hydroxypyrrolidine-2-carboxamide]
< 100 nM	> 90%	< 100 nM	70 to 90%	–	C#Cc1ccc([C@H](C)NC(=O)[C@@H]2C[C@@H](O)CN2C(=O)[C@H](C(C)C)n2cc([C@H]3CC[C@H](CN4CCC(c5ccc6c(c5)-n5c(nc(=O)c7c(Cl)cccc75)C6(C)C)CC4)CC3)nn2)cc1 [Compound B128, (2S,4R)-1-((S)-2-(4-((1r,4S)-4-((4-(4-chloro-7,7-dimethyl-5-oxo-5,7-dihydroindolo[1,2-a]quinazolin-10-yl)piperidin-1-yl)methyl)cyclohexyl)-1H-1,2,3-triazol-1-yl)-3-methylbutanoyl)-N-((S)-1-(4-ethynylphenyl)ethyl)-4-hydroxypyrrolidine-2-carboxamide]
